Here are results for 4 molecules from patent US8314129B2, “Optical isomers of an iloperidone metabolite” (Novartis AG, priority 2004, dated 2012).

For data set [1] the following is noted: higher than parent drug iloperidone; cited from earlier work.
Another data set has as its target 5HT2A receptors (Homo sapiens, UniProt P28223). Put plainly: radioligand binding, 5HT2A receptor. Conditions: standard radioligand binding; human recombinant receptors and native rat brain receptors; read-out: affinity for 5HT2A receptors (pKi) (converted). Here is the method:
(§1) Receptor affinity is determined with standard radioligand binding techniques, using human recombinant receptors and native rat brain receptors. Blockade of dopamine D2 and noradrenergic α2c receptors is tested in cell-lines using luciferase reporter gene assays based on 2nd messenger responses.

Another data set addresses T1, adrenergic α2c receptors (Homo sapiens, UniProt P18825).
T1 sequence (P18825 1-462): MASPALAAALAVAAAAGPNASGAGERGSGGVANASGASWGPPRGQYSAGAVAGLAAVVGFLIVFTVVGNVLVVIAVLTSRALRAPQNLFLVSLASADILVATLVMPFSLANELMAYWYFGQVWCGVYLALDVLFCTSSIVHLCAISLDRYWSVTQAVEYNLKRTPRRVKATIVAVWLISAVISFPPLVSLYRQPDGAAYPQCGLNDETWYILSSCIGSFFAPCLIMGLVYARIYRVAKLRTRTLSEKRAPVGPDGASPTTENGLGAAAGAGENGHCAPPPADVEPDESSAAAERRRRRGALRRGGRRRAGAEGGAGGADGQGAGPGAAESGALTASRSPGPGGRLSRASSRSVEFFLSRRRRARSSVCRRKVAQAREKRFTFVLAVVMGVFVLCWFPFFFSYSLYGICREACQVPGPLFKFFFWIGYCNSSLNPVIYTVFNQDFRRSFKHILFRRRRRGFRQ
The data set can be described thus: radioligand binding, adrenergic α2c receptor. Conditions: standard radioligand binding; human recombinant receptors and native rat brain receptors; read-out: affinity for adrenergic α2c receptors (pKi) (converted). Here is the method: as §1

For the next data set, the target named is 5HT6 receptors (Homo sapiens, UniProt P50406). The data set can be described thus: radioligand binding, 5HT6 receptor. Conditions: standard radioligand binding; human recombinant receptors and native rat brain receptors; read-out: affinity for 5HT6 receptors (pKi) (converted). The procedure: as §1
5HT6 receptors, sequence (P50406 whole entry): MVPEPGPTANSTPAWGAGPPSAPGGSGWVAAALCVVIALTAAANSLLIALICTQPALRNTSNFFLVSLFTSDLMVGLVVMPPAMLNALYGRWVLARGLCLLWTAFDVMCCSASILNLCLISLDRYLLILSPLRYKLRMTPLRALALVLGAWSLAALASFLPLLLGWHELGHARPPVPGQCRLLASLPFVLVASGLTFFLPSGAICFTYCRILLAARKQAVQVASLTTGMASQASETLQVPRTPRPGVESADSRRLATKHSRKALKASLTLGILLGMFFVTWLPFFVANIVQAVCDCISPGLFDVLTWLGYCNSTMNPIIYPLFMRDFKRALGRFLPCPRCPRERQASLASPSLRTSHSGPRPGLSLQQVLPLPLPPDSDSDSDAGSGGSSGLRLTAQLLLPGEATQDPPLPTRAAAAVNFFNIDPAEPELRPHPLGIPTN
The target of another data set is adrenergic α1 receptors. Put plainly: radioligand binding, adrenergic α1 receptor. As to conditions: standard radioligand binding; human recombinant receptors and native rat brain receptors. The procedure:
as §1

The nature of data set [2]: metabolite formation in humans following administration of iloperidone. Format: in vivo, human. The text has this: P-88-8991 consists of a mixture of two enantiomers which have never been disclosed in the literature.

5HT2A receptors, sequence (P28223 whole entry): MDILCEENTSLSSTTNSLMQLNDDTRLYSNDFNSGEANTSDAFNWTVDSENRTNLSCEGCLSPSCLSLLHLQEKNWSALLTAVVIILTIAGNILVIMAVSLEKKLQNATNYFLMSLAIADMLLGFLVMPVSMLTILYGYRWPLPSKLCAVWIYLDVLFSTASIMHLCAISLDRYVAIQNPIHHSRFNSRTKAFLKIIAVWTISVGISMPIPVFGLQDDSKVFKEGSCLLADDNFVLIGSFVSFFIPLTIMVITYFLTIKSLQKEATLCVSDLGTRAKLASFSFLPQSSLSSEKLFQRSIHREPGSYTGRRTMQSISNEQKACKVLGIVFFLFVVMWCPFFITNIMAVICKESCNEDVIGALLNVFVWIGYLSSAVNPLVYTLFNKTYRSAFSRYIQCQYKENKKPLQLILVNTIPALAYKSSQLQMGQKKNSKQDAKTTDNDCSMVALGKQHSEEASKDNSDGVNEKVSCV

With `COc1cc(C(C)O)ccc1OCCCN1CCC(c2noc3cc(F)ccc23)CC1` (racemic) [P-88-8991], the “plasma levels in human relative to the parent drug” value in data set [1] is “about 1.5 fold”.

As to `COc1cc([C@H](C)O)ccc1OCCCN1CCC(c2noc3cc(F)ccc23)CC1` [formula I, (S)-1-(4-{3-[4-(6-fluoro-benzo[d]isoxazol-3-yl)-piperidin-1-yl]-propoxy}-3-methoxy-phenyl)-ethanol], the Ki is 0.00126 µM on 5HT2A receptors, 0.0158 µM on adrenergic α2c receptors and 0.00794 µM on 5HT6 receptors. For the same molecule, the “affinity for adrenergic α1 receptors (pKi)” value at adrenergic α1 receptors is 8.9.

Regarding `COc1cc([C@@H](C)O)ccc1OCCCN1CCC(c2noc3cc(F)ccc23)CC1` [formula II, (R)-1-(4-{3-[4-(6-fluoro-benzo[d]isoxazol-3-yl)-piperidin-1-yl]propoxy}-3-methoxy-phenyl}-ethanol], the Ki on 5HT2A receptors is 0.00126 µM; on adrenergic α2c receptors, 0.02 µM; on 5HT6 receptors it was 0.0158 µM. The “affinity for adrenergic α1 receptors (pKi)” value on adrenergic α1 receptors turned out to be 9.2.

Take `COc1cc(C(C)=O)ccc1OCCCN1CCC(c2noc3cc(F)ccc23)CC1` [iloperidone, 1-(4-{3-[4-(6-fluoro-benzo[d]isoxazol-3-yl)piperidin-1-yl]propoxy}-3-methoxy-phenyl)-ethanone]: the “stereospecific formation of P-88-8991 enantiomer” value in data set [2] is listed as “humans produce only one enantiomer stereospecifically”.
